# Source: patent publication US20050256302A1, “Novel peptides having camp producing activity” (Japan Science and Technology Agency, priority 2002, published 2005)
# Where a SMILES comes first, the peptide text is derived from it. Bridges are numbered along the chain shown (N, C = ends).
# Assays:
# [1] = system: amyloride-sensitive Na/H co-transporter on LLC-PK1 cells; experiment: Incorporation of sodium ion (22Na) in LLC-PK1 cells, with or without EIPA; type: cell-based, pig; details: 10 minutes
# Experimental: A culture solution of LLC-PK1 cells was substituted with a Hanks' choline chloride solution, CRSP and sodium chloride having a predetermined radioactivity (^22Na) were added thereto so as to make the final concentration 0 M, 10^−8 M, 10^−7 M and 10^−6 M each, the cells were washed after 10 minutes so that ^22Na contained in the solution outside the cells was completely removed and radioactivity incorporated into the cells was measured by a gamma-counter. Similarly, a culture solution of LLC-PK1 cells was substituted with a Hanks' choline chloride solution, sodium chloride having a predetermined radioactivity (^22Na) as well as CRSP and an amyloride derivative (5-(N-ethyl-N-isopropyl)-amiloride) (EIPA) which is an Na/H co-transporter inhibitor were added thereto so as to make the final concentration 0 M CRSP+0 M EIPA, 10^−6 M CRSP+0 M EIPA, 10^−6 M CRSP+10^−8 M EIPA, 10^−6 M CRSP+10^−7 M EIPA, 10^−6 M CRSP+10^−6 M EIPA and 0 M CRSP+10^−6 M EIPA each. Cells were washed after 10 minutes so that ^22Na contained in the outer solution of the cells was completely removed and radioactivity incorporated into the cells was measured by a gamma-counter.
# The results are shown in FIG. 5 (incorporation of sodium ion in the absence of EIPA), FIG. 6 (incorporation of sodium ion in the presence of EIPA) and FIG. 7 (incorporation of calcium ion). […]
# [2] = target: T1, Pig calcitonin receptor (CTR) (Sus scrofa, UniProt P25117); experiment: cAMP production in opossum renal epithelial cells (OK cells) expressing CTR; type: cell-based; details: CTR expressed in OK cells
# T1 construct: expressed in transfected cells; host or cells: COS-7 (given as rhesus monkey renal cells), vector pcDNA 3.1
# T1 sequence (P25117 30-498): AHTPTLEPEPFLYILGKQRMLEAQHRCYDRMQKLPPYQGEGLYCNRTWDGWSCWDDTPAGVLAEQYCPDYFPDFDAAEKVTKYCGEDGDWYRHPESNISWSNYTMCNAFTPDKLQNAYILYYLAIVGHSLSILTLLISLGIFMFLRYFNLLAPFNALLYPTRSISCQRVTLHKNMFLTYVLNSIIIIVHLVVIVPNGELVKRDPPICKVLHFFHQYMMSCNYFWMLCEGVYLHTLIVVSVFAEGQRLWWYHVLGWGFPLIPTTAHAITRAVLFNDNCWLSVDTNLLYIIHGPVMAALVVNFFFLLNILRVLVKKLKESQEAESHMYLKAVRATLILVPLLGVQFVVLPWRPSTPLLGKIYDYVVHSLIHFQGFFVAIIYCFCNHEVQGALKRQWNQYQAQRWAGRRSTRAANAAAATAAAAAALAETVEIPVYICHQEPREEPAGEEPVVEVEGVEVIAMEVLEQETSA
# Experimental: Pig calcitonin receptor (CTR) was introduced into a mammalian expression vector pcDNA 3.1, expressed in rhesus monkey renal cells (COS-7) and production amount of cAMP by stimulation of CRSP was measured by radioimmunoassay. Similarly, CTR was expressed in opossum renal cells (OK cells) and production amount of cAMP by stimulation of CRSP was measured by radioimmunoassay while incorporation of sodium ion was measured by measuring the incorporation of sodium chloride having radioactivity (^22Na) by a gamma-counter. The results are shown in FIG. 10 (changes in cAMP productivity by CRSP stimulation in cells (COS-7) where calcitonin receptor was expressed in a genetic engineering manner), FIG. 11 (changes in cAMP productivity in opossum renal epithelial cells where pig calcitonin receptor (CTR) was expressed) and FIG. 12 (changes in incorporation of sodium ion in opossum renal epithelial cells where pig calcitonin receptor (CTR) was expressed).
# Similarly, CTR was expressed in opossum renal cells (OK cells) and production amount of cAMP by CRSP stimulation was measured by radioimmunoassay while incorporation of sodium ion was measured by incorporation of radioactive sodium chloride (^22Na) using a gamma-counter.
# [3] = Blood pressure of anesthetized rats; type: in vivo; details: rat, 16 nmol/kg from jugular vein
# Experimental: (§1) CRSP corresponding to an amount of 16 nmol/kg dissolved in a physiological saline solution was administered at a time within a short period from jugular vein of rat under an anesthetized condition and calcium concentration in the plasma and blood pressure were measured. The results are shown in FIG. 13 (changes in calcium concentration in blood by administration of CRSP) and FIG. 14 (changes in blood pressure by administration of CRSP).
# (§2) CRSP corresponding to the amount of 16 nmol/kg dissolved in a physiological saline solution was administered at a time within short period from […] of rat under an anesthetized condition.
# [4] = Calcium concentration in plasma of anesthetized rats; type: in vivo; details: rat, 16 nmol/kg from jugular vein
# Experimental: as §1, §2
smiles,measurement,setting,value
CSCC[C@H](NC(=O)[C@H](CCCCN)NC(=O)[C@@H](NC(=O)[C@@H]1CCCN1C(=O)[C@H](CC(C)C)NC(=O)[C@H](CC(C)C)NC(=O)[C@H](CC(N)=O)NC(=O)[C@H](CO)NC(=O)[C@H](CCCNC(=N)N)NC(=O)[C@@H](NC(=O)[C@H](CCSC)NC(=O)[C@H](CO)NC(=O)CNC(=O)[C@H](CO)NC(=O)[C@H](CCCNC(=N)N)NC(=O)[C@H](CO)NC(=O)[C@H](CC(C)C)NC(=O)[C@H](CC(C)C)NC(=O)CNC(=O)[C@@H](NC(=O)[C@H](CC(C)C)NC(=O)[C@H](CCCNC(=N)N)NC(=O)[C@H](Cc1c[nH]cn1)NC(=O)[C@@H](NC(=O)[C@H](CCSC)NC(=O)[C@@H]1CSSC[C@H](NC(=O)[C@@H](N)CO)C(=O)N[C@@H](CC(N)=O)C(=O)N[C@@H]([C@@H](C)O)C(=O)N[C@@H](C)C(=O)N[C@@H]([C@@H](C)O)C(=O)N1)[C@@H](C)O)C(C)C)C(C)C)[C@@H](C)O)C(=O)NCC(=O)N[C@@H](Cc1ccccc1)C(=O)N[C@@H](CCCCN)C(=O)N[C@H](C(=O)N[C@@H](Cc1ccccc1)C(=O)NCC(N)=O)C(C)C [CRSP] (H-SCNTATCMTHRLVGLLSRSGSMVRSNLLPTKMGFKVFG-NH2; disulfide 2-7),incorporation of sodium into cells,[1]; 10^-8 to 10^-6 M,promoted
same,amyloride-sensitive Na/H co-transporter,[1],activated
same,intracellular adenylyl cyclase activity,[2],increases
same,blood pressure,[3],no apparent change
same,calcium concentration in plasma,[4],transiently lowered
